Assay results published in article PMC8353271, “Functional Characterization of Olfactory Receptors in the Thyroid Gland” (Frontiers in Physiology, 2021).
pEC50: −log10 of the molar value.

Target: T1, OR2H2 (Homo sapiens, UniProt O95918)
T1 sequence (O95918 1-312): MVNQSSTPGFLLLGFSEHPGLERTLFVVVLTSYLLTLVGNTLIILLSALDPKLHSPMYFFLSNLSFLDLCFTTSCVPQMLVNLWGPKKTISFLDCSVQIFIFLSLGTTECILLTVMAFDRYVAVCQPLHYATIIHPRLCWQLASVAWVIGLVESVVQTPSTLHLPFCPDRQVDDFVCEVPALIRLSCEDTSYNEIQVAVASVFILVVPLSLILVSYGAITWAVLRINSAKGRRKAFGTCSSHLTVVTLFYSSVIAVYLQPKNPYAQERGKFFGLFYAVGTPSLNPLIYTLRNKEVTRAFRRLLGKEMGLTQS
Assay: Fura-2 Ca2+ imaging in Nthy-ori […]-1 cells (endogenous receptor), response reduced by CRISPR/Cas9 OR2H2 knockout; cAMP assay
Assay type: cell-based

- pEC50: 3.44
Substance: aldehyde 13-13
